Laboratory results as given in ChEMBL document CHEMBL4007481, “Synthesis and antibacterial activity of 3-benzylamide derivatives as FtsZ inhibitors” (Bioorg Med Chem Lett, 2017).
Active and inactive are the calls of the source. No cut-off for these calls is given here.

Assays:
[1] = system: Bacillus subtilis subsp. spizizenii ATCC 6633 = JCM 2499; assay: Inhibition of FtsZ in Bacillus subtilis ATCC 6633 assessed as ratio of diameter of zone inhibition of test compound to diameter of zone inhibition of tetracycline at 100 ug per disc after 18 to 24 hrs by paper disc agar diffusion assay
[2] = system: Mycolicibacterium smegmatis; assay: Inhibition of FtsZ in Mycobacterium smegmatis ATCC 607 assessed as ratio of diameter of zone inhibition of test compound to diameter of zone inhibition of streptomycin at 100 ug per disc after 18 to 24 hrs by paper disc agar diffusion assay
Pseudomonas aeruginosa = assay: Inhibition of FtsZ in Pseudomonas aeruginosa ATCC 9027 assessed as growth inhibition at 100 ug per disc after 18 to 24 hrs by paper disc agar diffusion assay
Klebsiella aerogenes = assay: Inhibition of FtsZ in Klebsiella aerogenes ATCC 9621 assessed as growth inhibition at 100 ug per disc after 18 to 24 hrs by paper disc agar diffusion assay
Candida albicans = assay: Antifungal activity against Candida albicans ATCC 10231 at 100 ug per disc after 3 to 5 days by paper disc agar diffusion assay; type: functional
[3] = system: Escherichia coli ATCC 25922; assay: Inhibition of FtsZ in Escherichia coli ATCC 25922 assessed as growth inhibition at 100 ug per disc after 18 to 24 hrs by paper disc agar diffusion assay
Aspergillus niger = assay: Antifungal activity against Aspergillus niger ATCC 16404 at 100 ug per disc after 3 to 5 days by paper disc agar diffusion assay; type: functional
[4] = target: T1, Cell division protein FtsZ (Staphylococcus aureus) (UniProt P0A031); assay: Inhibition of FtsZ in Staphylococcus aureus ATCC 6538P assessed as ratio of diameter of zone inhibition of test compound to diameter of zone inhibition of cephaloridine at 100 ug per disc after 18 to 24 hrs by paper disc agar diffusion assay
T1 sequence (whole entry): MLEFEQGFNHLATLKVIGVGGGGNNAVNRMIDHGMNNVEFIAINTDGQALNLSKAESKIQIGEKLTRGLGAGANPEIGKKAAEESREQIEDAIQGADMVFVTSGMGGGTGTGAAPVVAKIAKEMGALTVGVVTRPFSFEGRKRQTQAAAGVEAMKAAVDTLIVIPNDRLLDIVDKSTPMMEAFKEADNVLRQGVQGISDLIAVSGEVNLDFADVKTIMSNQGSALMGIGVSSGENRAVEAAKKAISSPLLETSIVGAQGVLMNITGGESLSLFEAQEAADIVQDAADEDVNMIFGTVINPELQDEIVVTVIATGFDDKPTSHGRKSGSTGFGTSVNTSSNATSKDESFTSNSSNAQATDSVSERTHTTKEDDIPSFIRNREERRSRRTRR

[5] = target: T1, Cell division protein FtsZ (Staphylococcus aureus); assay: Inhibition of FtsZ in Staphylococcus aureus ATCC 6538P assessed as growth inhibition at 100 ug per disc after 18 to 24 hrs by paper disc agar diffusion assay
[6] = system: Bacillus subtilis subsp. spizizenii ATCC 6633 = JCM 2499; assay: Inhibition of FtsZ in Bacillus subtilis ATCC 6633 assessed as growth inhibition at 100 ug per disc after 18 to 24 hrs by paper disc agar diffusion assay
Klebsiella pneumoniae = assay: Inhibition of FtsZ in Klebsiella pneumoniae ATCC 9621 assessed as growth inhibition at 100 ug per disc after 18 to 24 hrs by paper disc agar diffusion assay
[7] = system: Mycolicibacterium smegmatis; assay: Inhibition of FtsZ in Mycobacterium smegmatis ATCC 607 assessed as growth inhibition at 100 ug per disc after 18 to 24 hrs by paper disc agar diffusion assay

| Structure (SMILES) | Ratio [1] | Ratio [2] | inhibition (Pseudomonas aeruginosa) | inhibition (Klebsiella aerogenes) | inhibition [3] | Ratio [4] | inhibition [5] | inhibition [6] | inhibition (Klebsiella pneumoniae) | inhibition [7] | Activity (Candida albicans) | Activity (Aspergillus niger) |
| --- | --- | --- | --- | --- | --- | --- | --- | --- | --- | --- | --- | --- |
| NC(=O)c1c(F)ccc(OCCCOC(=O)c2ccccc2)c1F | – | – | inactive | – | inactive | – | inactive | inactive | inactive | inactive | inactive | inactive |
| NS(=O)(=O)c1c(F)ccc(OCc2nc3cc(Cl)ccc3s2)c1F | – | – | inactive | inactive | inactive | – | inactive | inactive | – | inactive | inactive | inactive |
| NC(=O)c1c(F)ccc(OCCCOc2cccc3ccccc23)c1F | – | – | inactive | inactive | inactive | – | inactive | inactive | – | inactive | inactive | inactive |
| NC(=O)c1c(F)ccc(OCCCOc2ccc(Cl)c3cccnc23)c1F | 0.1 | – | inactive | inactive | inactive | 0.25 | – | – | – | inactive | inactive | inactive |
| NC(=O)c1c(F)ccc(OCCC(=O)Oc2ccccc2)c1F | 0.3 | – | inactive | inactive | inactive | 0.41 | – | – | – | – | inactive | inactive |
| NC(=O)c1c(F)ccc(OCCCOc2c(Cl)cc(Cl)c3cccnc23)c1F | 0.1 | 0.2 | inactive | inactive | inactive | 0.18 | – | – | – | – | inactive | inactive |
| NC(=O)c1c(F)ccc(OCCCOc2cccc3cccnc23)c1F | – | – | inactive | inactive | inactive | 0.07 | – | inactive | – | inactive | inactive | inactive |
| Cc1ccc2cccc(OCCCOc3ccc(F)c(C(N)=O)c3F)c2n1 | – | – | inactive | inactive | inactive | – | inactive | inactive | – | inactive | inactive | inactive |
| NC(=O)c1c(F)ccc(OCc2nc3cc(Cl)cnc3s2)c1F | – | – | – | – | – | 1.2 | – | inactive | – | inactive | – | – |
| NC(=O)c1c(F)ccc(OCC(=O)Nc2ccccc2)c1F | 0.1 | – | inactive | inactive | inactive | 0.1 | – | – | – | inactive | inactive | inactive |
| NS(=O)(=O)c1c(F)ccc(OCc2nc3cc(Cl)cnc3s2)c1F | – | – | inactive | inactive | inactive | – | inactive | inactive | – | inactive | inactive | inactive |

The next lines start with results.

| Ratio [1] | Ratio [2] | inhibition (Pseudomonas aeruginosa) | inhibition (Klebsiella aerogenes) | inhibition [3] | Ratio [4] | inhibition [5] | inhibition [6] | inhibition (Klebsiella pneumoniae) | inhibition [7] | Structure (SMILES) | Activity (Candida albicans) | Activity (Aspergillus niger) |
| --- | --- | --- | --- | --- | --- | --- | --- | --- | --- | --- | --- | --- |
| 0.18 | 0.36 | inactive | inactive | inactive | 0.18 | – | – | – | – | NC(=O)c1c(F)ccc(OCC(=O)OCCOc2ccccc2)c1F | inactive | inactive |
| 0.19 | 0.5 | inactive | inactive | inactive | 0.07 | – | – | – | – | NC(=O)c1c(F)ccc(OCC(=O)Oc2ccccc2)c1F | inactive | inactive |
| 0.3 | 0.07 | inactive | inactive | inactive | 0.25 | – | – | – | – | Cc1ccc(OC(=O)COc2ccc(F)c(C(N)=O)c2F)cc1 | inactive | inactive |
| 0.18 | – | inactive | inactive | inactive | – | inactive | – | – | inactive | NC(=O)c1c(F)ccc(OCC(=O)OCc2ccccc2)c1F | inactive | inactive |
| 0.51 | 0.37 | inactive | inactive | inactive | – | inactive | – | – | – | COc1ccc(OCCOC(=O)COc2ccc(F)c(C(N)=O)c2F)cc1 | inactive | inactive |
| 0.18 | 0.62 | inactive | inactive | inactive | 0.44 | – | – | – | – | NC(=O)c1c(F)ccc(OCC(=O)OCCOc2ccc(F)cc2)c1F | inactive | inactive |
| 0.15 | – | inactive | inactive | inactive | 0.22 | – | – | – | inactive | NC(=O)c1c(F)ccc(OCC(=O)OCCOc2ccc(Br)cc2)c1F | inactive | inactive |
| 0.25 | – | inactive | inactive | inactive | 0.1 | – | – | – | inactive | Cc1ccc(OCCOC(=O)COc2ccc(F)c(C(N)=O)c2F)cc1 | inactive | inactive |
| – | – | inactive | inactive | inactive | – | inactive | inactive | – | inactive | NC(=O)c1c(F)ccc(OCCCOc2ccc3ccccc3c2)c1F | inactive | inactive |
| – | – | inactive | – | inactive | – | inactive | inactive | inactive | inactive | NC(=O)c1c(F)ccc(OCCOC(=O)c2ccccc2)c1F | inactive | inactive |
| 0.15 | 0.19 | inactive | inactive | inactive | – | inactive | – | – | – | COc1ccc(OC(=O)COc2ccc(F)c(C(N)=O)c2F)cc1 | inactive | inactive |
| 0.11 | – | inactive | inactive | inactive | – | inactive | – | – | inactive | N#Cc1ccc(OCCOC(=O)COc2ccc(F)c(C(N)=O)c2F)cc1 | inactive | inactive |
